Assay results published in patent US8324245B2, “Quinoline derivative and quinazoline derivative inhibiting self-phosphorylation of hepatocytus proliferator receptor, and medicinal composition containing the same” (Kyowa Hakko Kirin Co., Ltd., priority 2001, dated 2012).

biological target: T1, met (HGF receptor) in human gastric cancer cells MKN45 (Homo sapiens, UniProt P08581); assay: Inhibitory activity against met-autophosphorylation using ELISA method (2), MKN45 cells, HGF-independent; type: cell-based
T1 construct: endogenous in cells; host or cells: MKN45 human gastric cancer cells
Outline: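 MKN45 cells, 3×10^4 per well in RPMI with 0.1% FCS overnight, were exposed to compound in DMSO for 1 h at 37 °C without HGF. Lysates were captured on anti-phosphotyrosine (PY20) plates, Met detected with anti-Met and peroxidase secondary antibody, absorbance at 450 nm.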

T1 sequence (P08581 25-1390): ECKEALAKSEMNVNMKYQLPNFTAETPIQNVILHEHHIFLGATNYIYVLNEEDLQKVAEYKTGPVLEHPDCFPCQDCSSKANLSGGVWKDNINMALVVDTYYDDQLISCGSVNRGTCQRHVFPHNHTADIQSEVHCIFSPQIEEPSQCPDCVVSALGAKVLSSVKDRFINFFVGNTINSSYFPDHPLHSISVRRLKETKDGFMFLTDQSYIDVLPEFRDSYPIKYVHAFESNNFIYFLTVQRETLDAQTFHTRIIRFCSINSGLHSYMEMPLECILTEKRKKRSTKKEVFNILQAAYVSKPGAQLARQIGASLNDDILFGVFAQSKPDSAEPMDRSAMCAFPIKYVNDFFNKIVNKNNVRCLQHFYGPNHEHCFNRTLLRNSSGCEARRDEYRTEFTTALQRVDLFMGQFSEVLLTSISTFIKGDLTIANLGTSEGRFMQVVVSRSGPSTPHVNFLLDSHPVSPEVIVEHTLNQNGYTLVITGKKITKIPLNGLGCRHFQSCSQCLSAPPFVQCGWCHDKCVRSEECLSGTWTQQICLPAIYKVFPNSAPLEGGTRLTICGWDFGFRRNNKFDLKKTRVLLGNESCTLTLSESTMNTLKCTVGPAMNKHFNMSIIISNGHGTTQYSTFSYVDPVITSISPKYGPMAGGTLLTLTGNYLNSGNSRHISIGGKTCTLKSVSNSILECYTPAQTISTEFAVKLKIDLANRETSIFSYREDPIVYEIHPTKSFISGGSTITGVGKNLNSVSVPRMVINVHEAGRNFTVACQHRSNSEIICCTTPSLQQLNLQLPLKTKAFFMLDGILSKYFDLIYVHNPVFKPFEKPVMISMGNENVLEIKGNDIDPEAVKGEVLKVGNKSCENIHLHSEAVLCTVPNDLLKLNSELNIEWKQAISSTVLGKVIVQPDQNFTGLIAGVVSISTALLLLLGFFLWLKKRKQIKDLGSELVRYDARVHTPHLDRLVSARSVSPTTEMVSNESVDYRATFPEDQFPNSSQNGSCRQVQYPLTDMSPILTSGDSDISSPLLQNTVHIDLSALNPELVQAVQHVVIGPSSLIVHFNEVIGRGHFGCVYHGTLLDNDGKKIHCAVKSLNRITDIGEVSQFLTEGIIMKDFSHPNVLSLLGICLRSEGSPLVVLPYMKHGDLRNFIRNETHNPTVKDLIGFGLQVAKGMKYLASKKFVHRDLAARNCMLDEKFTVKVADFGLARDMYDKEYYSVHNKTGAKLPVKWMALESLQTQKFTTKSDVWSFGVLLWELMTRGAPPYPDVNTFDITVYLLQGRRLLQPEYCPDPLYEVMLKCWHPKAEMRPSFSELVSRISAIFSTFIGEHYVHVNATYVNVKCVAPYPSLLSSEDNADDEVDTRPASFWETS

Q: COc1cc2nccc(Oc3ccc(NC(=O)NC(=O)Nc4ccnn4C)cc3)c2cc1OC [Example 237, N-(1-methyl-1H-5-pyrazolyl)-({[4-(6,7-dimethoxyquinolin-4-yloxy)anilino]carbonyl}amino)-methanamide] was tested. Which IC50 did it give?
A: Its IC50 is 1.47 µM.

Q: How did the IC50 turn out when COc1cc2nccc(Oc3ccc(NC(=O)NC(=O)Cc4ccsc4)cc3Cl)c2cc1OC [Example 21, 1-[3-chloro-4-(6,7-dimethoxyquinolin-4-yloxy)-phenyl]-3-(2-thiophen-3-ylacetyl)urea] was run?
A: Its IC50 is 0.188 µM.

Q: COc1cc2c(Oc3ccc(NC(=O)NC(=O)Cc4ccccc4F)cc3F)ccnc2cc1OCCCN1CCN(C)CC1 [Example 296, 1-(3-Fluoro-4-{6-methoxy-7-[3-(4-methyl-piperazin-1-yl)-propoxy]-quinolin-4-yloxy}-phenyl)-3-[2-(2-fluoro-phenyl)-acetyl]-urea] was tested. Which IC50 did it give?
A: The IC50 was 0.0197 µM.

Q: Which IC50 does the source give for COc1cc2nccc(Oc3ccc(NC(=S)NC(=O)Cc4cccc(F)c4)cc3F)c2cc1OC [Example 75, 1-[4-(6,7-dimethoxyquinolin-4-yloxy)-3-fluoro-phenyl]-3-[2-(3-fluorophenyl)acetyl]thiourea] here?
A: Its IC50 is 0.0336 µM.

Q: COc1cc2nccc(Oc3ccc(NC(=S)NC(=O)Cc4cc(F)ccc4F)cc3F)c2cc1OC [Example 195, 1-[2-(2,5-difluorophenyl)acetyl]-3-[4-(6,7-dimethoxyquinolin-4-yloxy)-3-fluorophenyl]thiourea] was tested. Which IC50 did it give?
A: The IC50 was 0.291 µM.

Q: COc1cc2nccc(Oc3ccc(NC(=O)NC(=O)CN4CCC(Cc5ccccc5)CC4)cc3F)c2cc1OC [Example 120, 1-[2-(4-benzyl-piperidin-1-yl)acetyl]-3-[4-(6,7-dimethoxyquinolin-4-yloxy)-3-fluorophenyl]urea] was tested. Which IC50 did it give?
A: The IC50 was 1.57 µM.

Q: How did the IC50 turn out when COc1cc2nccc(Oc3ccc(NC(=S)NC(=O)Cc4c(F)cccc4F)cc3F)c2cc1OC [Example 95, 1-[2-(2,6-difluorophenyl)acetyl]-3-[4-(6,7-dimethoxyquinolin-4-yloxy)-3-fluorophenyl]thiourea] was run?
A: The IC50 was 0.0413 µM.

Q: For COc1cc2nccc(Oc3ccc(NC(=S)NC(=O)Cc4cccc(F)c4)cc3)c2cc1OC [Example 164, 1-[4-(6,7-dimethoxyquinolin-4-yloxy)phenyl]-3-[2-(3-fluorophenyl)acetyl]thiourea], which IC50 is on record?
A: Its IC50 is 0.242 µM.

Q: How did the IC50 turn out when COc1cc2nccc(Oc3ccc(NC(=O)NC(=O)Cc4ccccc4F)cc3)c2cc1OC [Example 25, 1-[4-(6,7-dimethoxyquinolin-4-yloxy)phenyl]-3-[2-(2-fluorophenyl)acetyl]urea] was run?
A: The IC50 was 0.14 µM.

Q: How did the IC50 turn out when COc1cc2c(Oc3ccc(NC(=O)NC(=O)Cc4ccccc4)cc3F)ccnc2cc1O [Example 106, N-{3-Fluoro-4-[(7-hydroxy-6-methoxy-4-quinolyl)-oxy]phenyl}-N′-(2-phenylacetyl)urea] was run?
A: Its IC50 is 0.0427 µM.

Q: For COc1cc2nccc(Oc3ccc(NC(=S)NC(=O)Cc4ccccc4F)c(F)c3)c2cc1OC [Example 80, 1-[4-(6,7-dimethoxyquinolin-4-yloxy)-2-fluoro-phenyl]-3-[2-(2-fluorophenyl)acetyl]thiourea], which IC50 is on record?
A: The IC50 was 0.0302 µM.

Q: Which IC50 does the source give for COc1cc2nccc(Oc3ccc(NC(=O)NC(=O)Cc4ccc(C)cc4)c(F)c3)c2cc1OC [Example 124, 1-[4-(6,7-dimethoxyquinolin-4-yloxy)-2-fluorophenyl]-3-(2-p-tolylacetyl)urea] here?
A: The IC50 was 0.264 µM.

Q: With COc1cc2nccc(Oc3ccc(NC(=O)NC(=O)CN(C)C(C)C)cc3Cl)c2cc1OC [Example 112, 1-[3-chloro-4-(6,7-dimethoxyquinolin-4-yloxy)phenyl]-3-[2-(isopropylmethylamino)acetyl]urea] as the molecule, how does the IC50 read?
A: Its IC50 is 1.73 µM.

Q: For COc1cc2nccc(Oc3ccc(NC(=O)NC(=O)Cc4cccc(F)c4F)c(F)c3)c2cc1OC [Example 138, 1-[2-(2,3-difluorophenyl)acetyl]-3-[4-(6,7-dimethoxyquinolin-4-yloxy)-2-fluorophenyl]urea], which IC50 is on record?
A: The IC50 was 0.284 µM.

Q: How did the IC50 turn out when COc1cc2nccc(Oc3ccc(NC(=S)NC(=O)Cc4c(F)ccc(F)c4F)c(F)c3)c2cc1OC [Example 205, 1-[4-(6,7-dimethoxyquinolin-4-yloxy)-2-fluorophenyl]-3-[2-(2,3,6-trifluorophenyl)acetyl]-thiourea] was run?
A: The IC50 was 0.265 µM.
